*1 amine or outer side, *2 acyl side, *3 side chain or, on linkers, in order; H or OH if unused. Where a SMILES comes first, the peptide text is derived from it. Bridges are numbered along the chain shown (N, C = ends). Roman numbers before positions name the chains, in order. [ ]: non-standard residue; d: D form. Actinocin(9to1) = Cc1c2oc3c(C)ccc(C(=O)[*:1])c3nc-2c(C(=O)[*:2])c(N)c1=O; NMeV = CN[C@H](C(=O)O)C(C)C; Sar = CNCC(=O)O
Assays:
[1] = system: ρ^0 (143B/206) and ρ^+ (143B) osteosarcoma cells; experiment: Flow cytometric analysis of apoptotic cells (annexin V / propidium iodide); assay type: cell-based, human; conditions: for apoptosis induced in ρ^0 cells compared with ρ^+ cells (early apoptotic cells, annexin V positive/propidium iodide negative): 16 hours, 0.5 μM staurosporine, 100 ng/ml anti-Fas antibody or 20 ng/ml TNFα plus 100 ng/ml actinomycin D; for proapoptotic effect on ρ^0 or ρ^+ cells: agent alone
Method: (§1) A human osteosarcoma-derived cell line, 143B, containing mtDNA (ρ^+), and its mtDNA-less derivative, 143B/206 (ρ^0), were maintained in Dulbecco's Modified Eagle Medium (DMEM)-high glucose ([…]; GibcoBRL, Life Technologies AB, Sweden) containing 10% fetal bovine serum, and 100 IU/ml penicillin-streptomycin (GibcoBRL, Life Technologies AB, Sweden). The 143B/206 ρ^0 cells were additionally supplemented with 1 mM sodium pyruvate (GibcoBRL, Life Technologies AB, Sweden) and 50 μg/ml uridine (Sigma-Aldrich AB, Sweden) as described [King et al, Science 246:500-503 (1989)]. Cells were grown to sub-confluence.
We stained the cells with annexin V and propidium iodide using the Vybrant apoptosis assay kit 2 (Molecular Probes, Leiden, The Netherlands). Flow cytometric analyses were performed on a Beckton Dickinson flow cytometer (FACScan) and the results were analyzed by using the Cell Quest program (Beckton Dickinson).

[2] = system: ρ^0 (143B/206) and ρ^+ (143B) osteosarcoma cells; experiment: Measurement of caspase 3 activity; assay type: cell-based, human; conditions: 16 hours; ρ^0 and ρ^+ cells; compared to untreated cells
Method: as §1
Caspase 3 activity was measured by the caspase 3 assay kit (Pharmingen, CA, USA). Briefly, a tetrapeptide labeled with the fluorochrome 7-amino-4-methylcoumarin (AMC) was used as a substrate to identify and quantitate caspase 3 activity. AMC is released from the substrate upon cleavage by caspase-3. Free AMC is quantified in cell lysates by ultraviolet (UV) using an excitation wavelength of 365 nm and an emission wavelength of 460 nm. […] Caspase 3 activity was measured on ρ^0 and ρ^+ cells incubated with 0.5 μM staurosporin (n=3), 100 ng/ml human anti-Fas antibody plus 100 ng/ml actinomycin D (n=3), and 20 ng/ml human recombinant tumour necrosis factor α plus 100 ng/ml actinomycin D (n=3) for 16 hours.

[3] = system: NADH dehydrogenase subunit 4 (ND4); conditions: cited from earlier work
[4] = biological target: T1, human mtDNA light strand promoter (LSP) transcription (Homo sapiens, UniProt O00411+Q00059); experiment: In vitro run off transcription assay with recombinant mtRNAP, TFAM, TFB1M/TFB2M; assay type: biochemical; conditions: TFAM (2.5 pmol), mtRNAP/TFB1M (400 fmol) or mtRNAP/TFB2M (400 fmol)
T1 construct: 10xHis (N); 6xHis (C); made in house; host or cells: Sf9 insect cells, recombinant baculovirus (pBacPAK9)
From the text: Recombinant human mitochondrial RNA polymerase (mtRNAP), TFAM, TFB1M, and TFB2M were expressed in a baculovirus system and purified to homogeneity. The activity of these proteins was studied in vitro by run off transcription assays. The template used was a human mtDNA fragment containing the light strand promoter (LSP) followed by a 200 base pairs long stretch of double-stranded DNA. Neither, mtRNAP, TFAM, TFB1M nor TFB2M did alone initiate transcription from the mtDNA promoter. […] However, specific transcription initiation from LSP was obtained by combining either mtRNAP, TFAM and TFB1M or mtRNAP, TFAM and TFB2M. On the basis of these experiments we conclude that both TFB1M and TFB2M are functional homologues of the previously identified Saccharomyces cerevisiae protein Mtf1.
To investigate the promoter specificity of the transcription reaction, we added a double-stranded oligonucleotide containing only the LSP sequence in a 100-fold surplus to the template DNA. […]
DNA fragments corresponding to base pairs 1-741 (LSP/HSP), 1-477 (LSP) or 499-741 (HSP) of human mtDNA [Anderson et al., Nature 290:457 (1981)] were cloned into pUC18. […] The pellets were dissolved in 10 μl of gel loading buffer (98% formamide, 10 mM EDTA pH 8.0, 0.025% xylene cyanol FF, 0.025% bromophenol blue), heated at 95° C. for 5 min, and analyzed on a 5% denaturing polyacrylamide gel in 1×TBE. […]

T1 sequence (O00411 42-1230): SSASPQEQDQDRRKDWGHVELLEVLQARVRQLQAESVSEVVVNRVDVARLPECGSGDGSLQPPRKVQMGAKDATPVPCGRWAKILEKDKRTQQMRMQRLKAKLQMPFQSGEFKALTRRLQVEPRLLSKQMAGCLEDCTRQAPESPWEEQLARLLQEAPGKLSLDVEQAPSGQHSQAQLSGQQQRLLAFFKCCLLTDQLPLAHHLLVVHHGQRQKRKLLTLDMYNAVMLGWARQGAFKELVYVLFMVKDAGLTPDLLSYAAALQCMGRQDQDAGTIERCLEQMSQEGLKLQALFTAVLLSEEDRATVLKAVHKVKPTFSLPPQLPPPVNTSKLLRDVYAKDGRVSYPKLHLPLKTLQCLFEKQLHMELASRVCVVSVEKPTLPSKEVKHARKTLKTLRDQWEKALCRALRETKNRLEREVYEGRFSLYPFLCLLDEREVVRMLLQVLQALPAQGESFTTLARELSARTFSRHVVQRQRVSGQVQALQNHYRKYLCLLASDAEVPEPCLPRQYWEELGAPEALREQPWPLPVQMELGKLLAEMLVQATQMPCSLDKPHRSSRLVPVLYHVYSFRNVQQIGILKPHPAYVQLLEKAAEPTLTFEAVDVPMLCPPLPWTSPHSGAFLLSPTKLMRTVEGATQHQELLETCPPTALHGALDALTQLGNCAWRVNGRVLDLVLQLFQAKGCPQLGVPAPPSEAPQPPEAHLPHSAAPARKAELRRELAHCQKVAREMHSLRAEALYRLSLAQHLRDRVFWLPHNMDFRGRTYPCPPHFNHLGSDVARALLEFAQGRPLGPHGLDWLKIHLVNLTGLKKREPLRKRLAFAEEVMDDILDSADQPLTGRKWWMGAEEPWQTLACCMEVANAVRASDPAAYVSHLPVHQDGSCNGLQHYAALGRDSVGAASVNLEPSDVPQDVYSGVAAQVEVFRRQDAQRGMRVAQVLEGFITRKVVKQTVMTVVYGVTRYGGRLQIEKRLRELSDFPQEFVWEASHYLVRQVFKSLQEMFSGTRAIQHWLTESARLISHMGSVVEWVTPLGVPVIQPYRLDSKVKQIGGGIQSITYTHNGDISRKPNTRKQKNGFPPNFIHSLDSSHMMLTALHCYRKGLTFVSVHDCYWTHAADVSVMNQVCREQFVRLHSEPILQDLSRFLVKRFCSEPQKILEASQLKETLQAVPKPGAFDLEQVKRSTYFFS
T1 sequence (Q00059 43-246): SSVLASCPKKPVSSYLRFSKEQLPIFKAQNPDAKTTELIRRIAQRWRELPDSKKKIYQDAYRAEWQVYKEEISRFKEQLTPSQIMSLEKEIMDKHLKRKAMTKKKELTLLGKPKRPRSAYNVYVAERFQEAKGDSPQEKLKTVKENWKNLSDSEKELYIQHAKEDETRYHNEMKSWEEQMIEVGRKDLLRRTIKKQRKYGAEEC

Row | Molecule | cell death in the cell population [3] | differentiation in the surviving population [3] | other results
1 | CN[C@@H]1C[C@H]2O[C@@](C)([C@@H]1OC)n1c3ccccc3c3c4c(c5c6ccccc6n2c5c31)C(=O)NC4 [STP, staurosporine] | – | – | apoptosis induced in ρ^0 cells compared with ρ^+ cells (early apoptotic cells, annexin V positive/propidium iodide negative) [1]: more STP-induced apoptosis in cells with mtDNA (ρ^+ cells) than in their mtDNA-less derivatives; induction of caspase 3 activity [2]: significant induction of caspase 3 activity in both ρ^0 and ρ^+ cells
2 | C=C(C)[C@H]1Cc2c(ccc3c2O[C@@H]2COc4cc(OC)c(OC)cc4[C@@H]2C3=O)O1 [Rotenone] | increase cell death | induce differentiation | –
3 | TNFα | – | – | proapoptotic effect on ρ^0 or ρ^+ cells [1]: no proapoptotic effect
4 | Antimycin A | increase cell death | induce differentiation | –
5 | Oligomycine | increase cell death | induce differentiation | –
6 | Cc1c2oc3c(C)ccc(C(=O)N[C@@H]4C(=O)N[C@H](C(C)C)C(=O)N5CCC[C@H]5C(=O)N(C)CC(=O)N(C)[C@@H](C(C)C)C(=O)O[C@@H]4C)c3nc-2c(C(=O)N[C@@H]2C(=O)N[C@H](C(C)C)C(=O)N3CCC[C@H]3C(=O)N(C)CC(=O)N(C)[C@@H](C(C)C)C(=O)O[C@@H]2C)c(N)c1=O [actinomycin D] (I: T[dV]P[Sar][NMeV] / II: T[dV]P[Sar][NMeV]; ester I:1-I:C, II:1-II:C; linker I:N-II:N via Actinocin(9to1)) | – | – | apoptosis induced in ρ^0 cells compared with ρ^+ cells (early apoptotic cells, annexin V positive/propidium iodide negative) [1]: no significant differences in the fraction of apoptotic cells; proapoptotic effect on ρ^0 or ρ^+ cells [1]: proapoptotic effect on both ρ^0 and ρ^+ cells
7 | TFB2M: recombinant human mitochondrial transcription factor B2, homologue of yeast Mtf1, expressed in a baculovirus system (protein) AGRFCILGSEAATRKHLPARNHCGLSDSSPQLWPEPDFRNPPRKASKASLDFKRYVTDRRLAETLAQIYLGKPSRPPHLLLECNPGPGILTQALLEAGAKVVALESDKTFIPHLESLGKNLDGKLRVIHCDFFKLDPRSGGVIKPPAMSSRGLFKNLGIEAVPWTADIPLKVVGMFPSRGEKRALWKLAYDLYSCTSIYKFGRIEVNMFIGEKEFQKLMADPGNPDLYHVLSVIWQLACEIKVLHMEPWSSFDIYTRKGPLENPKRRELLDQLQQKLYLIQMIPRQNLFTKNLTPMNYNIFFHLLKHCFGRRSATVIDHLRSLTPLDARDILMQIGKQEDEKVVNMHPQDFKTLFETIERSKDCAYKWLYDETLEDR | – | – | transcriptional activation compared with TFB1M [4]: at least one order of magnitude greater

From patent US20040253728A1, “New method” (priority 2000, published 2004)
